Source: patent US20220047559A1, “DRUG COMPOSITION FOR TREATING BREAST CANCER AND METHOD FOR MANUFACTURING THE SAME” (National Chiao Tung University, priority 2020, published 2022)

Legend:
[1] = Release of drugs from dialysis bag in pH 7.4 PBS buffer solution; assay type: physicochemical; conditions: 37° C.
Method: FIG. 3A and FIG. 3B show the release curves of ganetespib. FIG. 3C and FIG. 3D show the release curves of curcumin For free ganetespib, the dialysis bag stops release after 8 hours, and about 73% ganetespib is released. For ganetespib in the drug composition, the dialysis bag continues release until as long as 12 hours has elapsed, and about 80% ganetespib is released. As indicated by the arrows in FIG. 3B, CHC/GAN where ganetespib is encapsulated by CHC releases ganetespib more slowly and has higher content of ganetespib. It is because CHC protects ganetespib from being damaged by the environment and makes ganetespib release slowly. For free curcumin, although the dialysis bag have continued releasing curcumin for as long as 168 hours, the accumulated released curcumin is only about 8%. The slow release rate of free curcumin is owing to low aqueous solubility of curcumin Low aqueous solubility of curcumin also leads to low bioavailability of curcumin. The release rate of the curcumin in CHC/CCM is about the same as the free curcumin. The accumulated released curcumin of the curcumin in CHC/CCM is about 9%, slightly higher than that of the free curcumin. However, it can be seen in FIG. 3D: the difference therebetween increases with time.

SK-BR-3 cells = experiment: Cytotoxicity test (MTS, cell survival rate, IC50, combination index); assay type: cell-based; conditions: Homo sapiens, 48 hours
Method: Culture SK-BR-3 cells in a 24-well culture plate, and each well has 10^4 cells. After cells have attached to the culture plate for 20-24 hours, remove the culture liquid, and rinse the cells with PBS. Use Dulbecco's Modified Eagle Medium (DMEM) to dilute the drug compositions GAN, CCM, CHC/GAN, CHC/CCM, and CHC/GAN-CCM. Add the diluted drug compositions to the cells, and co-culture each drug composition and the cells for 48 hours. Remove DMEM, and flush the product of co-culture with PBS. Add MTS and DMEM (1:5 (v/v)) into each well of the cell culture plate, and culture them for 2-4 hours. Use a microplate reader to measure the absorptivity of the light having a wavelength of 490 nm, whereby to estimate the cell survival rates. The cell survival rate can be used to determine the half inhibitory concentration (IC50) and the combination index (CI) of two drugs. CHC/GAN and CHC/CCM can more effectively kill cells than the drugs in form of free molecules. […] Therefore, the drug composition carried by CHC nanoparticles can more effectively treat breast cancer in smaller dosage. Especially, while ganetespib is carried by CHC nanocarriers, the treating effect may be increased 60-70 times. […] The results also indicate that the effective concentration of the drug composition of the present invention may be lower than that of the conventional drug composition. […]

Row | accumulated released curcumin ([1]; 168 hours) | time after which release of ganetespib stops [1] | ganetespib released ([1]; at the time release stops) | Compound | IC50 (SK-BR-3 cells; curcumin) | IC50 (SK-BR-3 cells; ganetespib)
1 | about 8% |  |  | COc1cc(/C=C/C(=O)CC(=O)/C=C/c2ccc(O)c(OC)c2)ccc1O [CCM, curcumin] | 12 µg/mL | 
2 |  | 8 h | about 73% | CC(C)c1cc(-c2n[nH]c(=O)n2-c2ccc3c(ccn3C)c2)c(O)cc1O [GAN, ganetespib] |  | 0.00188 µg/mL
